Earlier results, collected in patent US7045323B2 (priority 1999, dated 2006).

What was measured:
[1] = test system: HIV reverse transcription process
proviral DNA load = settings: murine model of immunodeficiency; first stage of infection

| SMILES | inhibition of the HIV reverse transcription process [1] | proviral DNA load (proviral DNA load) |
| --- | --- | --- |
| N[C@@H](CCC(=O)N[C@@H](CS)C(=O)NCC(=O)O)C(=O)O [GSH, glutathione] | can inhibit | able to decrease the proviral DNA load |
| CC(=O)N[C@@H](CS)C(=O)O [N-acetylcysteine] | can inhibit |  |
